Where two headings read alike, the source gives them in different places.
How the values were obtained:
BSA [1] = molecular target: T1, BSA (Bos taurus, UniProt P02769); assay: CD thermal unfolding (Tm) of BSA; format: physicochemical, bovine
T1 construct: purchased Millipore Sigma-Aldrich
Excerpt: The thermal stability assessed by far-UV CD is solely determined through the thermal decay of the alpha-helical structure.

BSA [2] = molecular target: T1, BSA; assay: Far-UV CD secondary structure of BSA (CONTIN-LL deconvolution); format: physicochemical, bovine; parameters: Regular Alpha Helix / Distorted Alpha Helix / Regular Beta Sheet / Distorted Beta Sheet / Turns / Unordered: unit not given here; details: for Distorted Alpha Helix / Distorted Beta Sheet / Regular Alpha Helix / Regular Beta Sheet / Turns / Unordered: 25 °C
Excerpt: Circular dichroism (CD) is widely used to study the secondary structures of proteins, peptides and nucleic acids, because it requires a low concentration sample, is a nondestructive method, allows studying a wide range of variables (temperature, pH, etc.), and provides information on the effect of added ligands on protein folding and interactions. Far-UV (190–260 nm) CD spectroscopy was used to assess the IFN- α 2b and BSA secondary structure since the spectra are characteristic of different structural elements.
Circular dichroism (CD) spectra were collected in a 10 mm quartz cuvette and a Chirascan spectropolarimeter (Applied Photophysics, UK) at room temperature. All CD spectra were recorded in the far-UV range of 190 to 260 nm at scan rates of 50 nm/min, with 4 accumulations, and a response time of 3 s; CD spectra were collected. For each CD experiment, two distinct duplicates were acquired and combined. BSA was fixed at 1 mg/mL, solvent concentrations ranging from 0.1 to 200 mM were used, and the spectra were translated to MRE after being expressed in terms of molar ellipticity. Spectral deconvolution was carried out with DichroWeb using the CONTIN-LL deconvolution algorithm with the SMP180 reference set.

FITC-BSA = molecular target: T2, FITC-BSA (Bos taurus, UniProt P02769); assay: MST binding to FITC-BSA; parameters: species or system bovine; details: 0.41 μM BSA
T2 construct: purchased Millipore Sigma-Aldrich
T2 sequence (P02769 25-607): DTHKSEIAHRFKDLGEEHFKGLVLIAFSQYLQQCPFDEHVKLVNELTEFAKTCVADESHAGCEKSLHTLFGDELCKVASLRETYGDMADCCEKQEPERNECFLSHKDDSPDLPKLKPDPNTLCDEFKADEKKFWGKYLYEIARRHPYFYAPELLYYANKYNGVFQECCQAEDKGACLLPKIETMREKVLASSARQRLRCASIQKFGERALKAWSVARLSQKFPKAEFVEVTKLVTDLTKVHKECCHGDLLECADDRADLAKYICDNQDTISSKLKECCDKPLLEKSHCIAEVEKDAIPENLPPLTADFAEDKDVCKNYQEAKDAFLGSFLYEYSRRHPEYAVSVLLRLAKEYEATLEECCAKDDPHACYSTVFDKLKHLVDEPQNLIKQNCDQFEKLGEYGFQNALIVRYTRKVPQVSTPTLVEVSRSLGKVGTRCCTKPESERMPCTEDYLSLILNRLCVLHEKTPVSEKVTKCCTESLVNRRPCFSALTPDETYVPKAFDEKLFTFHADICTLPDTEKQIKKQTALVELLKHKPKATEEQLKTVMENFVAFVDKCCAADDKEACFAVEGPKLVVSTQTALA
Protocol: Herein, a commercial FITC labeling kit (Section 3) was used to fluorescently tag both IFN- α 2b and BSA. Typically, in the labeling process, one amine per protein is labeled, statistically distributing the position of the dye. […] The MST assay was performed as detailed in Section 3. The solutions were prepared with a concentration of IFN- α 2b and BSA fixed at 0.41 μ M in water. For IFN- α 2b a concentration of 2.7 μ M was also prepared to compare it with previous results on MST-binding between FILs and IFN- α 2b fluorescently labeled with a different tag. In each run of MST, a maximum concentration of a ligand is selected and consecutively diluted in sixteen capillaries. […] The experimental conditions of the MST assay only allow the study of the aggregation phenomenon individually for the first CAC.
Microscale thermophoresis (MST) measurements of the dye-labeled protein were used to conduct binding investigations. […] MST tests were conducted in a monolith NT.115 (blue/red) in accordance with the NanoTemper Technologies methodology. Medium MST power and 20% LED power (nano-blue) were set as the instrument’s default settings. For every MST measurement, a PBS buffer was used. The concentration of FITC-BSA was fixed at 0.4 μ M and FITC-IFN- α 2b was tested under two different concentrations (of 0.4 and 2.7 μ M). The ligand was used to create a set of 16 1:1 dilutions, with the starting ligand concentrations ranging from 10 to 400 mM. The typical parameters for MST traces were used for recording: […], 30 s MST power on, and 5 s MST power off. The data from three independently conducted pipetted experiments were examined using NanoTemper Technologies’ MO.Affinity Analysis software, version 2.3.

BSA [3] = molecular target: T1, BSA; assay: DSC thermal unfolding of BSA in water and aqueous solutions of ABS phase-forming components; format: physicochemical, bovine
Protocol: Differential scanning calorimetry (DSC) measurements were performed with Nano DSC equipment, as detailed in Section 3, and used to determine the melting temperature (T m ) and enthalpy ( Δ H) of protein unfolding. DSC analyzes changes in the structure and stability of proteins as thermal transitions at the nanoscale. Using DSC to measure heat capacity as a function of the temperature of a well-studied protein such as BSA provides keen insights into folding and unfolding processes, as well as factors affecting stability. Due to the volume and concentration requirements of the DSC technique, and the constraints in available quantities of IFN- α 2b the DSC experiments on the ABS phase-forming components’ effect on the structural properties of proteins were attained only for BSA.
The T m of BSA, which corresponds to the thermal unfolding transition midpoint, was measured in the absence and presence of the ABS phase-forming components at increasing concentrations (see Figure 1 and Table 2).

[4] = 1.0 mg/ml BSA, 200 mM component aqueous solution
[5] = 1.0 mg/mL BSA, 0.1 mM component
[6] = 1.0 mg/mL BSA, 120 mM component
[7] = 1.0 mg/mL BSA, 200 mM component
[8] = 1.2-1.6 mg/mL BSA in [N1112(OH)][H2PO4]-rich phase of BP#8

T1 sequence (P02769 25-607): as above

## C[N+](C)(C)CCO.C[N+](C)(C)CCO.O=P([O-])(O)O.O=P([O-])(O)O [[N1112(OH)][H2PO4], Choline ((2-hydroxyethyl)trimethylammonium) dihydrogen phosphate]
BSA [1]; [4]
  Tm, Ellipticity 192 nm: 65.691 °C
  Tm, Ellipticity 208 nm: 76.945 °C
  Tm, Ellipticity 222 nm: 66.702 °C
BSA [2]; [5]
  Distorted Alpha Helix: 0.204
  Distorted Beta Sheet: 0.031
  Regular Alpha Helix: 0.397
  Regular Beta Sheet: 0.000
  Turns: 0.147
  Unordered: 0.221
BSA [2]; 1.0 mg/mL BSA, 1 mM component
  Distorted Alpha Helix: 0.210
  Distorted Beta Sheet: 0.023
  Regular Alpha Helix: 0.393
  Regular Beta Sheet: 0.000
  Turns: 0.132
  Unordered: 0.242
BSA [2]; 1.0 mg/mL BSA, 5 mM component
  Distorted Alpha Helix: 0.203
  Distorted Beta Sheet: 0.023
  Regular Alpha Helix: 0.377
  Regular Beta Sheet: 0.004
  Turns: 0.128
  Unordered: 0.265
BSA [2]; 1.0 mg/mL BSA, 25 mM component
  Distorted Alpha Helix: 0.195
  Distorted Beta Sheet: 0.029
  Regular Alpha Helix: 0.36
  Regular Beta Sheet: 0.015
  Turns: 0.136
  Unordered: 0.266
BSA [2]; 1.0 mg/mL BSA, 55 mM component
  Distorted Alpha Helix: 0.150
  Distorted Beta Sheet: 0.055
  Regular Alpha Helix: 0.242
  Regular Beta Sheet: 0.080
  Turns: 0.153
  Unordered: 0.320
BSA [2]; 1.0 mg/mL BSA, 90 mM component
  Distorted Alpha Helix: 0.171
  Distorted Beta Sheet: 0.044
  Regular Alpha Helix: 0.294
  Regular Beta Sheet: 0.057
  Turns: 0.145
  Unordered: 0.289
BSA [2]; [6]
  Distorted Alpha Helix: 0.207
  Distorted Beta Sheet: 0.029
  Regular Alpha Helix: 0.396
  Regular Beta Sheet: 0.018
  Turns: 0.141
  Unordered: 0.208
BSA [2]; [7]
  Distorted Alpha Helix: 0.202
  Distorted Beta Sheet: 0.032
  Regular Alpha Helix: 0.386
  Regular Beta Sheet: 0.021
  Turns: 0.146
  Unordered: 0.212
FITC-BSA; max. conc. first capillary 12.5 mM (monomer)
  Kd: no binding detected
FITC-BSA; max. conc. first capillary 400 mM (monomer)
  Kd: no binding detected
BSA [3]; [5]
  Tm: 75.36 °C
  ΔG: 15.2 kcal/mol
  ΔHcal: 105.9 kcal/mol
  ΔHcal/ΔHvH: 0.949
  ΔHvH: 111.6 kcal/mol
  ΔS: 1.272 KJ/(mol.K)
BSA [3]; 1.0 mg/mL BSA, 1 mM component
  Tm: 81.59 °C
  ΔG: 18.02 kcal/mol
  ΔHcal: 112.4 kcal/mol
  ΔHcal/ΔHvH: 0.613
  ΔHvH: 183.3 kcal/mol
  ΔS: 1.325 KJ/(mol.K)
BSA [3]; 1.0 mg/mL BSA, 5 mM component
  Tm: 80.80 °C
  ΔG: 25.72 kcal/mol
  ΔHcal: 162.2 kcal/mol
  ΔHcal/ΔHvH: 1.081
  ΔHvH: 150 kcal/mol
  ΔS: 1.915 KJ/(mol.K)
BSA [3]; 1.0 mg/mL BSA, 10 mM component
  Tm: 73.90 °C
  ΔG: 17.42 kcal/mol
  ΔHcal: 122.8 kcal/mol
  ΔHcal/ΔHvH: 0.998
  ΔHvH: 123 kcal/mol
  ΔS: 1.479 KJ/(mol.K)
BSA [3]; tested concentration range vs water
  effect on BSA Tm (DSC): maintained

## Bovine serum albumin [BSA]
BSA [1]; 1.0 mg/mL BSA in water
  Tm, Ellipticity 192 nm: 74.028 °C
  Tm, Ellipticity 208 nm: 74.616 °C
  Tm, Ellipticity 222 nm: 76.277 °C
BSA [1]; [8]
  Tm, Ellipticity 208 nm: 76.122 °C
  Tm, Ellipticity 222 nm: 80.396 °C
BSA [2]; 1.0 mg/mL BSA in water
  Distorted Alpha Helix: 0.206
  Distorted Beta Sheet: 0.025
  Regular Alpha Helix: 0.400
  Regular Beta Sheet: 0.000
  Turns: 0.136
  Unordered: 0.233
BSA [2]; BSA in water, CD deconvolution
  predicted α-helical content: 0.61
BSA [3]; 1.0 mg/mL BSA in water
  ΔG: 16.87 kcal/mol
  ΔHcal: 113.9 kcal/mol
  ΔHvH: 112.4 kcal/mol
  ΔS: 1.361 KJ/(mol.K)

## O=S(=O)(O)C(F)(F)C(F)(F)C(F)(F)C(F)(F)F [[N1112(OH)][C4F9SO3], (2-hydroxyethyl)trimethylammonium perfluorobutane sulfonate]
FITC-BSA; max. conc. first capillary in 1st CAC range, read-out: Kd
  Kd: 860 ± 190 µM
FITC-BSA; max. conc. first capillary in 2nd CAC range, read-out: Kd
  Kd: 1490 ± 300 µM
